Reference: patent publication US20240299416A1, “TREATMENT OF NF-kB-MEDIATED DISEASE” (ReveraGen BioPharma, Inc., priority 2021, published 2024)

What was measured:
[1] = Growth (height percentile) and BMI vs external comparators; format: in vivo, human
Method: As with the CINRG DNHS comparators, group-matching criteria were prespecified in the iSAP, and 2 independent statisticians carried out the participant matching. […] There was no corresponding 12-month assessment in vamorolone-treated participants. (Assessments of vamorolone-treated trial participants were 0, 3, 6, and 18 months).
Standing height and weight were assessed at each study visit. Height z-score, body mass index (BMI; kg/m^2), and BMI z-score were calculated centrally. AE reporting was done per protocol in the vamorolone trials.
The current study is the first to evaluate the longer-term tolerability, efficacy, and safety of vamorolone in DMD. […] Given the variable timing of dose escalations, it was prespecified that initial analyses of drug-related efficacy and safety would be limited to those participants who had 18 months of treatment with 2.0 mg/kg/day vamorolone or more (dose group C+dose group D; n=23). Outcomes for these participants were compared to a group-matched cohort from the CINRG DNHS over 18 months (corticosteroid-naïve, n=19; corticosteroid-treated, n=68). Participants were matched for age and treatment period (±1 month), matching criteria were prespecified in the statistical analysis plan. Two independent statisticians carried out the matching.
Participants in the corticosteroid-treated CINRG DNHS group were treated for at least 18 months, but the total duration, dose, and regimens varied.

boys with DMD = experiment: VBP15-004 efficacy at Week 48; format: in vivo, human; details: for 6MWT, change from baseline / NSAA, change from baseline / TTRW velocity, change from baseline / TTSTAND velocity, change from baseline: 6 mg/kg/day
Method: (§1) Subjects already on vamorolone continued on the allocated dose level. Efficacy at Week 48 was assessed by Time to Stand ([…]) velocity, 6-Minute Walk Test (6MWT), Time to Run/Walk 10 meters (TTRW) velocity, and North Star Ambulatory Assessment (NSAA). […] In contrast, the persistence of effects with vamorolone 2 mg/kg/day was less pronounced for some parameters. The safety profile was consistent for subjects who continued on the same dose of vamorolone throughout the study, with no increase in frequency or severity of adverse events being observed over time. […] In addition, vamorolone treatment at both doses reversed the growth impairment seen during prednisone treatment and was associated with fewer adverse events, including those associated with corticosteroid use.

[2] = VBP15-004 adverse events, Treatment Period 2 / cross-over; format: in vivo, human
Method: as §1

glucocorticoid receptor = target: T1, glucocorticoid receptor (Homo sapiens, UniProt P04150); details: cited from earlier work
T1 sequence (P04150 1-777): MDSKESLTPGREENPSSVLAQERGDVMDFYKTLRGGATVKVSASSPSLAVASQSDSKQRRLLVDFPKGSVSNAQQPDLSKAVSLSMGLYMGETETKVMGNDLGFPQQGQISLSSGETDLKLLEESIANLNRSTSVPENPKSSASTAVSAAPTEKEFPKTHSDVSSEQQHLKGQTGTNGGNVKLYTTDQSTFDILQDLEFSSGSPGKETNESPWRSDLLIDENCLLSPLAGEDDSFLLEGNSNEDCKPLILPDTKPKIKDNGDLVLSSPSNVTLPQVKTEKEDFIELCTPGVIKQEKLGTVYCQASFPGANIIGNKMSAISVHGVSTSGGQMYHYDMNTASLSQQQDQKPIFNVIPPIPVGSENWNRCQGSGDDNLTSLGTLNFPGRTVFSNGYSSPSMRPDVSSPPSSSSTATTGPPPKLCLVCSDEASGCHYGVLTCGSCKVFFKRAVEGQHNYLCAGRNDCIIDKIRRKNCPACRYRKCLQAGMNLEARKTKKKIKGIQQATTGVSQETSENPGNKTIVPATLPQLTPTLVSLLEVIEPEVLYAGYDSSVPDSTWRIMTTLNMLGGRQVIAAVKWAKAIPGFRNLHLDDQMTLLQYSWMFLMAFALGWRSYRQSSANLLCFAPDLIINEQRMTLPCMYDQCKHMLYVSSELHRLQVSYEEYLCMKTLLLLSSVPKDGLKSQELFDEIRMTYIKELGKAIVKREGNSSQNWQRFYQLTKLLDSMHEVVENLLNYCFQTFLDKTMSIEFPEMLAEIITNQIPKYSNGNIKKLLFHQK

[3] = vamorolone 18 months vs prednisone trial 12 months
[4] = vamorolone vs corticosteroid-naïve DNHS, 18 months
[5] = vamorolone vs corticosteroid-treated DNHS, 18 months
[6] = Treatment Period 2 after switch from prednisone to vamorolone 6 mg/kg/day
[7] = after switch from prednisone to vamorolone 6 mg/kg/day

SMILES: C[C@@H]1C[C@H]2[C@@H]3CCC4=CC(=O)C=C[C@]4(C)C3=CC[C@]2(C)[C@@]1(O)C(=O)CO [Vamorolone, 17α,21-dihydroxy-16α-methylpregna-1,4,9(11)-triene-3,20-dione]
- Mean BMI z-score, 18-month value (SD) ([1]; 18 months of treatment): 1.46 (0.62)
- Mean BMI z-score, change from baseline (SD) ([1]; 18 months of treatment): 0.411 (0.615)
- Mean height percentile for age, 18-month value (SD) ([1]; 18 months of treatment): 35.24 (29.82)
- Mean BMI z-score, change from baseline (SD) ([1]; 18 months of treatment, listed as vamorolone): 0.41
- LS Mean change in height percentiles for age ([1]; DMD children, 18 months treatment): +6.9
- Mean BMI z-score, baseline value (SD) ([1]; baseline of 18-month period): 1.03 (0.56)
- Mean height percentile for age, baseline value (SD) ([1]; baseline of 18-month period): 29.19 (24.66)
- Mean BMI z-score, baseline value (SD) ([1]; baseline of 18-month period, listed as vamorolone): 1.03
- BMI change from baseline to 18 months ([1]; original dose group B (0.75 mg/kg/day, escalated)): 0.5 kg/m^2
- BMI change from baseline to 18 months ([1]; original dose group C (2.0 mg/kg/day)): 1.11 kg/m^2
- BMI change from baseline to 18 months ([1]; original dose group D (6.0 mg/kg/day)): 2.55 kg/m^2
- Mean BMI z-score, LS mean difference (SE) [1, 3]: 0.066 (0.193)
- Mean height percentile for age, LS mean difference (SE) [1, 3]: 10.37 (3.86)
- Mean height percentile for age, LS mean difference (SE) ([1]; vamorolone 18 months vs prednisone trial 12 months, listed as vamorolone): 10.37
- Mean BMI z-score, LS mean difference (SE) [1, 4]: 0.899 (0.204)
- Mean height percentile for age, LS mean difference (SE) [1, 4]: 6.72 (3.48)
- Mean BMI z-score, LS mean difference (SE) [1, 5]: 0.282 (0.146)
- Mean height percentile for age, LS mean difference (SE) [1, 5]: 15.86 (3.70)
- Mean height percentile for age, LS mean difference (SE) ([1]; vamorolone vs corticosteroid-treated DNHS, 18 months, listed as vamorolone): 15.86
- 6MWT, change from baseline (boys with DMD; Week 24): 37 meters
- NSAA, change from baseline (boys with DMD; Week 24): 3.4 points
- TTRW velocity, change from baseline (boys with DMD; Week 24): 0.29 m/s
- TTSTAND velocity, change from baseline (boys with DMD; Week 24): 0.052 rises/s
- 6MWT, change from baseline (boys with DMD; Week 48): 48 meters
- NSAA, change from baseline (boys with DMD; Week 48): 3.5 points
- TTRW velocity, change from baseline (boys with DMD; Week 48): 0.23 m/s
- TTSTAND velocity, change from baseline (boys with DMD; Week 48): 0.045 rises/s
- 6MWT distance (boys with DMD; [6]): 408 meters
- NSAA (boys with DMD; [6]): 26.2 points
- TTRW velocity (boys with DMD; [6]): 2.20 m/s
- TTSTAND velocity (boys with DMD; [6]): 0.27 rises/s
- serious adverse events reported during vamorolone treatment ([2]; Treatment Period 2): Three
- number of adverse events [2, 7]: 44
- number of adverse events reported as behavioral disorders [2, 7]: 6
- number of adverse events typically associated with corticosteroids [2, 7]: 16
- reduction in number of adverse events [2, 7]: 37%
- reduction in number of adverse events typically associated with corticosteroids [2, 7]: 60%
- overall safety and tolerability in clinical studies ([2]; in vivo): generally safe and well-tolerated
- binding to the glucocorticoid receptor (glucocorticoid receptor): potently binds
